Results on 14 compounds are retold here after publication PMC6272155, “Plasmin Regulation through Allosteric, Sulfated, Small Molecules” (Molecules, 2015).

Like-named read-outs stand apart in the source and are kept apart here.

Holding throughout (type): biochemical
For one assay, the target named is T1, human Lys-plasmin (Homo sapiens, UniProt P00747).
T1 construct: purchased Haematologic Technologies (Essex Junction, VT, USA)
The assay is described as follows: Direct inhibition of human Lys-plasmin, chromogenic substrate (Spectrozyme PL) hydrolysis assay. The conditions noted are these: for inhibition at 400 µM: 400 μM inhibitor, n ≥ 2, read-out: plasmin inhibition in initial screening; for IC50: human plasmin 20 nM, 50 mM Tris-HCl pH 7.4, 150 mM NaCl, 37 °C, Spectrozyme PL; for diminished potency relative to 32: 13-atom and 14-atom linkers vs 12-atom linker of 32; for decrease in inhibition potency relative to 31 and 32, respectively: tetrasulfated flavonoid replaced by para-sulfated quinazolinone. As to the method: Important to emphasize here that the potency of NSGM-based inhibitors was evaluated by measuring their IC50's (X-axis), whereas the efficacy was assessed by measuring the overall change in residual plasmin activity (%) (ΔY = YM − Y0) (Y-axis).
Direct inhibition of human Lys-plasmin was measured using a chromogenic substrate hydrolysis assay on a microplate reader (FlexStation III, Molecular Devices, Sunnyvale, CA, USA), as reported earlier. Briefly, to each well of a 96-well microplate containing 85 µL of 50 mM Tris-HCl buffer, pH 7.4, containing 150 mM NaCl, 0.1% PEG8000, and 0.02% Tween80 at 37 °C was added 5 µL potential NSGM-based inhibitor (20–100 mM aqueous solution) (or vehicle alone) and 5 µL enzyme. The final concentration of the enzyme was 20 nM. After 5 min incubation, 5 µL of 1 mM Spectrozyme PL was rapidly added and the residual enzyme activity was measured from the initial rate of increase in A405. Relative residual enzyme activity (Y) as a function of the concentration of sulfated molecule was fitted using logistic equation 1 to obtain the potency (IC50), efficacy (ΔY) and Hill slope (HS) of inhibition. In this equation, YM and Y0 are the maximal and minimal values of Y: (1) Y = Y0+YM−Y0/1+10^(log[Inhibitor]0 − logIC50) ×HS […]
In this equation, Y is the ratio of residual plasmin activity in the presence of inhibitor to that in its absence (fractional residual activity). YM and Y0 are the maximum and minimum possible values of the fractional residual proteinase activity. The difference between these two values is used to evaluate the inhibitor’s efficacy to reduce the residual enzyme activity under the assay condition.
Direct inhibition of human plasmin by sulfated small molecules. Direct inhibition of plasmin was measured using a chromogenic substrate hydrolysis assay on a microplate reader (FlexStation III, Molecular Devices), as reported earlier. Briefly, to each well of a 96-well microplate containing […]
Tween80 at 37 °C was added 5 µL potential inhibitor (or vehicle alone) and 5 µL enzyme. The final concentration of the enzyme was 20 nM. After 5 min incubation, 5 µL of 1 mM Spectrozyme PL was rapidly added and the residual enzyme activity was measured from the initial rate of increase in A405.
Relative residual enzyme activity (Y, activity in the presence of inhibitor to that in its absence) as a function of the concentration of SPGG derivative was fitted using logistic Equation (1) to obtain the potency (IC50), efficacy (ΔY) and Hill slope (HS) of inhibition. In this equation, YM and Y0 are the maximal and minimal values of Y.

A further assay deals with factor Xa (Homo sapiens, UniProt P00742). The assay is described as follows: Direct inhibition of factor Xa, chromogenic substrate (Spectrozyme FXa) hydrolysis assay. As to the method:
(§1) The rationale behind targeting an allosteric site on plasmin was to achieve inhibition specificity over the closely related serine proteases. In contrast to active sites, allosteric sites are not as highly conserved and therefore present a powerful opportunity for discovering a selective modulator of enzyme function. […] Using appropriate small peptide-based chromogenic substrates, the fractional residual thrombin and factor Xa activities were measured under the physiological condition of pH 7.4 and 37 °C.
(§2) Briefly, to each well of a 96-well microplate containing 185 μL of 20–50 mM Tris-HCl buffer, pH 7.4, containing 100–150 mM NaCl, 0.1% PEG8000 and 0.02% Tween80 at either 25 °C (thrombin) or 37 °C (factor Xa) was added 5 μL of 10–20 mM inhibitor (or vehicle) and 5 μL of the enzyme. The final concentrations of the enzymes were 6 nM (thrombin) and 1.09 nM (factor Xa). After 10 min incubation, 5 μL 1.0 mM Spectrozyme TH or 2.5 mM Spectrozyme FXa, was rapidly added and the residual enzyme activity was measured from the initial rate of increase in A405. Relative residual enzyme activity (Y, activity in the presence of inhibitor to that in its absence) as a function of the concentration of inhibitor was measured.

The next assay has as its target thrombin (Homo sapiens, UniProt P00734). The assay is described as follows: Direct inhibition of thrombin, chromogenic substrate (Spectrozyme TH) hydrolysis assay. The conditions noted are these: pH 7.4, 37 °C; read-out: IC50 against thrombin. As to the method:
as §1, §2

Where [1] appears, read: pH 7.4, read-out: ΔY% (efficacy, YM − Y0), logistic fit, pH 7.4, 37 °C.
[2] abbreviates: pH 7.4, logistic fit, pH 7.4, 37 °C, read-out: ΔY% (efficacy, YM − Y0).
Setting [3] is: logistic fit, pH 7.4, 37 °C, read-out: ΔY% (efficacy, YM − Y0).

T1 sequence (P00747 581-810 limits assumed): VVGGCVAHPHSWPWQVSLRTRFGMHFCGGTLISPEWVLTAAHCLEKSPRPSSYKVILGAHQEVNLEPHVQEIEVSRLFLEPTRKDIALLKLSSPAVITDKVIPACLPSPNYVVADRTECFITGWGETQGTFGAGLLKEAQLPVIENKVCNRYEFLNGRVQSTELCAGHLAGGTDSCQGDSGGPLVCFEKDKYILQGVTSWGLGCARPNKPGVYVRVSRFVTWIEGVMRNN
T1 sequence (P00747 97-580 partner limits assumed): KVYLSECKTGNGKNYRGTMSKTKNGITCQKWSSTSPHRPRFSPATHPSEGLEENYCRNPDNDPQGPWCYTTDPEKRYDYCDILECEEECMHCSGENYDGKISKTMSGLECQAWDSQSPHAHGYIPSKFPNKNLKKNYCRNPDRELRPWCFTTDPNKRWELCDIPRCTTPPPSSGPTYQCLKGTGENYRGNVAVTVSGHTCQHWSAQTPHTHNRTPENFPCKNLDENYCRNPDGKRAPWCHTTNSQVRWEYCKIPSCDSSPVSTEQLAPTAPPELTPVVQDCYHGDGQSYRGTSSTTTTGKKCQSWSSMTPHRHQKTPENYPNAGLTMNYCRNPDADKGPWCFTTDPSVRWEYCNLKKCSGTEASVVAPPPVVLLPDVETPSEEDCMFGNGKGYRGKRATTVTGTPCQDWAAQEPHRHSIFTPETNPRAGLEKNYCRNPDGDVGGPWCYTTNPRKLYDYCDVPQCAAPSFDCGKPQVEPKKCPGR
factor Xa, sequence (P00742 235-488 limits assumed): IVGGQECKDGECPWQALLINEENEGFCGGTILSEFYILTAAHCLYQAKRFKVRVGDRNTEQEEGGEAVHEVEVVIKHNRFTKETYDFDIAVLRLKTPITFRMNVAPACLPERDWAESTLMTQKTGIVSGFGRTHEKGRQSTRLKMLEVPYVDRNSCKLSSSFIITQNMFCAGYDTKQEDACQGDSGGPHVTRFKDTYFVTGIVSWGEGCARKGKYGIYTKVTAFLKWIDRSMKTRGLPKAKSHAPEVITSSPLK
factor Xa, sequence (P00742 41-179 partner limits assumed): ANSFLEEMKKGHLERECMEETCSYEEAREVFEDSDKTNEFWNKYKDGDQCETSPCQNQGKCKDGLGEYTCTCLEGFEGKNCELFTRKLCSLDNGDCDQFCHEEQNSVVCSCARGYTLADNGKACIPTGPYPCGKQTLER

The inhibition is the change of the read-out against control, counted positive when it falls. Regarding `O=S(=O)(O)OC[C@H]1O[C@@](COS(=O)(=O)O)(O[C@H]2O[C@H](COS(=O)(=O)O)[C@@H](OS(=O)(=O)O)[C@H](OS(=O)(=O)O)[C@H]2OS(=O)(=O)O)[C@@H](OS(=O)(=O)O)[C@@H]1OS(=O)(=O)O` [compound 17, sucrose octasulfate, reference compound], the inhibition at 400 µM on human Lys-plasmin (pH 7.4, 37 °C) was not above 70%.

The IC50 is the midpoint of a concentration-inhibition curve. On to `O=c1c(OS(=O)(=O)O)c(-c2ccc(OS(=O)(=O)O)c(OS(=O)(=O)O)c2)oc2cc(OS(=O)(=O)O)cc(OCc3cn(CCCCCCCn4c(-c5ccc(OS(=O)(=O)O)cc5)nc5ccccc5c4=O)nn3)c12` [compound 31, 3-(8-(4-((2-(3,4-O,O-Disulfonato-phenyl)-3,7-O,O-disulfonato-4-oxo-4H-chromen-5-yloxy)methyl)-1H-1,2,3-triazol-1-yl)heptyl)-2-(4-O-sulfonato-phenyl)quinazolin-4(3H)-one], for which, on factor Xa, the “selectivity index for plasmin over factor Xa” value was “about 5 fold”. Besides, the IC50 was more than 250 µM on factor Xa (pH 7.4, 37 °C, read-out: IC50 against factor Xa); 56 ± 2 µM against human Lys-plasmin; more than 500 µM on thrombin. The “HS (Hill slope)” value on human Lys-plasmin (logistic fit, pH 7.4, 37 °C) amounted to 3.2 ± 0.8. Further, the “ΔY% (efficacy, YM − Y0)” value on human Lys-plasmin (logistic fit, pH 7.4, 37 °C) was determined as 87 ± 4%. The Emax at human Lys-plasmin (setting [1]) was determined as 87%.

On to `O=c1c(OS(=O)(=O)O)c(-c2ccc(OS(=O)(=O)O)c(OS(=O)(=O)O)c2)oc2cc(OS(=O)(=O)O)cc(OCc3cn(CCCCCCCCCn4c(-c5ccc(OS(=O)(=O)O)cc5)nc5ccccc5c4=O)nn3)c12` [compound 33], for which, on human Lys-plasmin, the “diminished potency relative to 32” value is listed as ~ 3 fold and the IC50 stood at 128 ± 8 µM. Also, the “HS (Hill slope)” value on human Lys-plasmin (logistic fit, pH 7.4, 37 °C) is recorded as 1.8 ± 0.4. The Emax on human Lys-plasmin (setting [1]) came out at 89 ± 7%.

In the case of `O=c1c(OS(=O)(=O)O)c(-c2ccc(OS(=O)(=O)O)c(OS(=O)(=O)O)c2)oc2cc(OS(=O)(=O)O)cc(OCc3cn(CCCCCCCCCCn4c(-c5ccc(OS(=O)(=O)O)cc5)nc5ccccc5c4=O)nn3)c12` [compound 34], on human Lys-plasmin, the “diminished potency relative to 32” value is reported as ~ 3 fold and the midpoint of inhibition, the IC50, lay at 130 ± 6 µM. The “HS (Hill slope)” value at human Lys-plasmin (logistic fit, pH 7.4, 37 °C) is 3.9 ± 1.0. Further, the Emax at human Lys-plasmin (setting [1]) was 83 ± 5%.

Take `O=c1c2ccccc2nc(-c2ccc(OS(=O)(=O)O)cc2)n1Cc1cn(CCn2cc(Cn3c(-c4ccc(OS(=O)(=O)O)cc4)nc4ccccc4c3=O)nn2)nn1` [compound 41]: half-maximal inhibition against human Lys-plasmin (IC50) was put at 125 ± 9 µM. Also, at human Lys-plasmin (logistic fit, pH 7.4, 37 °C), the “HS (Hill slope)” value was found to be 4.0 ± 1.8 and the “ΔY% (efficacy, YM − Y0)” value was found to be 54 ± 5%. On human Lys-plasmin (setting [2]), the Emax stood at 54%.

In the case of `O=c1c2ccccc2nc(-c2ccc(OS(=O)(=O)O)cc2)n1CCCCCCCn1cc(Cn2c(-c3ccc(OS(=O)(=O)O)cc3)nc3ccccc3c2=O)nn1` [compound 42], at human Lys-plasmin, the 50% inhibitory concentration (IC50) was determined as 161 ± 24 µM; the “decrease in inhibition potency relative to 31 and 32, respectively” value was 3–4 fold. On human Lys-plasmin (logistic fit, pH 7.4, 37 °C), the “HS (Hill slope)” value amounted to 1.0 ± 0.2. In addition, the Emax on human Lys-plasmin (setting [3]) stood at 92 ± 4%.

For `O=c1c2ccccc2nc(-c2ccc(OS(=O)(=O)O)cc2)n1CCCCCCCCn1cc(Cn2c(-c3ccc(OS(=O)(=O)O)cc3)nc3ccccc3c2=O)nn1` [compound 43], at human Lys-plasmin, the concentration for half-maximal inhibition (IC50) turned out to be 183 ± 43 µM; the “decrease in inhibition potency relative to 31 and 32, respectively” value was 3–4 fold. Also, the “HS (Hill slope)” value on human Lys-plasmin (logistic fit, pH 7.4, 37 °C) worked out at 1.0 ± 0.3. For the same compound, the Emax at human Lys-plasmin (setting [3]) turned out to be 94 ± 21%.

For `O=c1c2ccccc2nc(-c2ccc(OS(=O)(=O)O)cc2)n1CCCCCCCCCn1cc(Cn2c(-c3ccc(OS(=O)(=O)O)cc3)nc3ccccc3c2=O)nn1` [compound 44], at human Lys-plasmin, the half-maximal inhibitory concentration (IC50) is 137 ± 11 µM. Moreover, the “HS (Hill slope)” value at human Lys-plasmin (logistic fit, pH 7.4, 37 °C) is listed as 1.0 ± 0.2. On human Lys-plasmin (setting [3]), the Emax was 102 ± 9%.

Compound `O=c1c2ccccc2nc(-c2ccc(OS(=O)(=O)O)cc2)n1CCCCCCCCCCn1cc(Cn2c(-c3ccc(OS(=O)(=O)O)cc3)nc3ccccc3c2=O)nn1` [compound 45] registered a half-maximal inhibitory concentration (IC50) against human Lys-plasmin of 98 ± 9 µM. Also, on human Lys-plasmin (logistic fit, pH 7.4, 37 °C), the “HS (Hill slope)” value is reported as 1.7 ± 0.6. In addition, the Emax on human Lys-plasmin (setting [3]) came to 94 ± 6%.

At human Lys-plasmin, `O=c1c2ccccc2nc(-c2ccc(OS(=O)(=O)O)cc2)n1CCCCCCCCCCCn1cc(Cn2c(-c3ccc(OS(=O)(=O)O)cc3)nc3ccccc3c2=O)nn1` [compound 46] registered an IC50 of 111 ± 7 µM. Besides, the “HS (Hill slope)” value on human Lys-plasmin (logistic fit, pH 7.4, 37 °C) is 2.4 ± 0.4. The Emax on human Lys-plasmin (setting [3]) is 95 ± 2%.

At human Lys-plasmin, `O=c1c2ccccc2nc(-c2ccc(OS(=O)(=O)O)cc2)n1CCCCCCCCCCCCn1cc(Cn2c(-c3ccc(OS(=O)(=O)O)cc3)nc3ccccc3c2=O)nn1` [compound 47] displayed an IC50 of 89 ± 7 µM. Further, the “HS (Hill slope)” value on human Lys-plasmin (logistic fit, pH 7.4, 37 °C) amounted to 1.9 ± 0.6. On human Lys-plasmin (setting [3]), the Emax came to 98 ± 7%.

`O=c1c(OS(=O)(=O)O)c(-c2ccc(OS(=O)(=O)O)c(OS(=O)(=O)O)c2)oc2cc(OS(=O)(=O)O)cc(OCCOc3cc(OS(=O)(=O)O)cc4oc(-c5ccc(OS(=O)(=O)O)c(OS(=O)(=O)O)c5)c(OS(=O)(=O)O)c(=O)c34)c12` [compound 50]: at human Lys-plasmin, the “loss in potency relative to 4-atom linker flavonoid homodimers (52, 54)” value was found to be 2 fold and it took 185 ± 68 µM to reach half-maximal inhibition (IC50). Moreover, the inhibition at 400 µM at human Lys-plasmin (pH 7.4, 37 °C) was more than 90%. Further, at human Lys-plasmin (logistic fit, pH 7.4, 37 °C), the “HS (Hill slope)” value was 1.4 ± 0.2 and the “ΔY% (efficacy, YM − Y0)” value worked out at 38 ± 15%. In addition, the Emax on human Lys-plasmin (setting [2]) was 38%.

Consider `O=c1c(OS(=O)(=O)O)c(-c2ccc(OS(=O)(=O)O)c(OS(=O)(=O)O)c2)oc2cc(OS(=O)(=O)O)cc(OCCCOc3cc(OS(=O)(=O)O)cc4oc(-c5ccc(OS(=O)(=O)O)c(OS(=O)(=O)O)c5)c(OS(=O)(=O)O)c(=O)c34)c12` [compound 51], for which, at human Lys-plasmin, the “loss in potency relative to 4-atom linker flavonoid homodimers (52, 54)” value is listed as 37 fold and the IC50 was approximately 2830 µM.

With `O=c1c(OS(=O)(=O)O)c(-c2ccc(OS(=O)(=O)O)c(OS(=O)(=O)O)c2)oc2cc(OS(=O)(=O)O)cc(OCCCCCOc3cc(OS(=O)(=O)O)cc4oc(-c5ccc(OS(=O)(=O)O)c(OS(=O)(=O)O)c5)c(OS(=O)(=O)O)c(=O)c34)c12` [compound 53], on human Lys-plasmin, the “loss in potency relative to 4-atom linker flavonoid homodimers (52, 54)” value is 3 fold and the half-maximal inhibitory concentration (IC50) amounted to 209 ± 25 µM. Further, the inhibition at 400 µM on human Lys-plasmin (pH 7.4, 37 °C) was more than 90%. The “HS (Hill slope)” value at human Lys-plasmin (logistic fit, pH 7.4, 37 °C) was determined as 0.6 ± 0.1. For the same compound, the Emax at human Lys-plasmin (setting [2]) amounted to 105 ± 8%.
